Earlier results in US20220273645A1, “NALTREXONE FORMULATION” (INTAS PHARMACEUTICALS LTD., priority 2019, published 2022).

Assays:
Crohn's disease = conditions: low dose; versus other standard therapy
[1] = test system: children with moderate to severe Crohn's disease; conditions: sole therapy in children with moderate-to-severe Crohn's disease

In the case of `O=C1CC[C@@]2(O)[C@H]3Cc4ccc(O)c5c4[C@@]2(CCN3CC2CC2)[C@H]1O5` [low dose naltrexone, (4R,4aS,7aR,12bS)-3-(cyclopropylmethyl)-4a,9-dihydroxy-2,4,5,6,7a,13-hexahydro-1H-4,12-methano benzofuro[3,2-e]isoquinoline-7-one], the “safety and effectiveness for the treatment of Crohn's disease” value (Crohn's disease) is given as “safe, effective” and the “tolerability / serious adverse events” value [1] is given as “well tolerated without any serious adverse events”.
